PMC7532004, “Site-specific effects of neurosteroids on GABAA receptor activation and desensitization” (eLife, 2020)

Target: T1, α1β3 GABAAR (α1His-FLAGβ3) (Homo sapiens, UniProt P14867+P28472)
T1 construct: inserted between the fourth and fifth residues of the mature peptide; photolabeling full-length heteropentameric GABAARs in native membranes; expressed in transfected cells
T1 sequence (P14867 28-456): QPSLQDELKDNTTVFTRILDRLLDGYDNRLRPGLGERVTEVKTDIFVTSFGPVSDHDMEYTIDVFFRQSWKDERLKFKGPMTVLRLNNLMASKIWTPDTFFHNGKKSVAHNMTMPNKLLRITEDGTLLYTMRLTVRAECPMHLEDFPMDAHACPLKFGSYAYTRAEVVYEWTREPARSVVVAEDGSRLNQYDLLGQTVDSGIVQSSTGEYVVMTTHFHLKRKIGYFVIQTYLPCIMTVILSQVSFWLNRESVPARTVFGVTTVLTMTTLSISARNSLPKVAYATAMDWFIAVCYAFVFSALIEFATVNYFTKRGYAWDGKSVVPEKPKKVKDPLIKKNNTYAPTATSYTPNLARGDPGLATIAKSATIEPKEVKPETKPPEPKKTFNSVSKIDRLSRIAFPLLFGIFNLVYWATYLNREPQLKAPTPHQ
T1 sequence (P28472 26-473): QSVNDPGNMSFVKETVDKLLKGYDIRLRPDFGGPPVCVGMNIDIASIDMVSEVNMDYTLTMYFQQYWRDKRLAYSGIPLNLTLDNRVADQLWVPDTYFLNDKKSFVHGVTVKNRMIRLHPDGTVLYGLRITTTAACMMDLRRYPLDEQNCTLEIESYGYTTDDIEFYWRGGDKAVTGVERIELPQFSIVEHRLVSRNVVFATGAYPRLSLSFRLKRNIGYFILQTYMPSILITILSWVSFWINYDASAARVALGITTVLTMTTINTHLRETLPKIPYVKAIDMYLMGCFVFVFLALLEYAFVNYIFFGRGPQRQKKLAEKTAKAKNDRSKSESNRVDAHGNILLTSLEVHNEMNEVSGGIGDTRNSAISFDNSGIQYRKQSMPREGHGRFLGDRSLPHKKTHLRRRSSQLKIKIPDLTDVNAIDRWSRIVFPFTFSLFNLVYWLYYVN
Experiment: Neurosteroid photolabeling and competition, middle-down mass spectrometry
Format: binding
Settings: for Prevention of KK200 photolabeling of α1N408 in the α1 intrasubunit site / Prevention of KK200 photolabeling of β3G308 in the intersubunit site: 3 μM KK200; for Photolabeling efficiency of α1 subunit TM4 (Y415, α1 intrasubunit site) / Photolabeling efficiency of β3 subunit TM4 peptide (β3 intrasubunit site): 30 μM photolabeling reagent
Protocol: The syntheses of neurosteroid photolabeling reagents (KK148, KK150, KK200, KK123) are detailed in previous reports ([Jiang et al., 2016]; [Cheng et al., 2018]). […] For the photolabeling competition experiments, 3 μM KK200 or KK123 in the presence of 30 μM competitor (3α5αP, KK148, KK150, and 3β5αP) or the same volume of ethanol was added to the membrane proteins and incubated on ice for 1 hr. The samples were then irradiated in a quartz cuvette for 5 min, by using a photoreactor emitting light at >320 nm. The membrane proteins were then collected by centrifugation at 20,000 g at 4°C for 45 min. The photolabeled membrane proteins were resuspended in lysis buffer containing 1% n-dodecyl-β-D-maltoside (DDM), 0.25% cholesteryl hemisuccinate (CHS), 50 mM Tris (pH 7.5), 150 mM NaCl, 2 mM CaCl2, 5 mM KCl, 5 mM MgCl2, 1 mM EDTA, 10% glycerol at a final concentration of 1 mg/ml. The membrane protein suspension was homogenized using a glass mortar and a Teflon pestle and incubated at 4°C overnight. The protein lysate was centrifuged at 20,000 g at 4°C for 45 min and supernatant was incubated with 0.5 ml anti-FLAG agarose (Sigma) at 4°C for 2 hr. The anti-FLAG agarose was then transferred to an empty column, followed by washing with 20 ml washing buffer (50 mM triethylammonium bicarbonate and 0.05% DDM). The GABAARs were eluted with aliquots of 200 μg/ml FLAG tag peptide and 100 μg/ml 3X FLAG (ApexBio) in the washing buffer. The pooled eluates (9 ml) containing GABAARs were concentrated to 100 μl using 100 kDa cut-off centrifugal filters.
The purified α1β3 GABAAR (100 μl) was reduced with 5 mM tris(2-carboxyethyl)phosphine for 1 hr, alkylated with 5 mM N-ethylmaleimide (NEM) for 1 hr, and quenched with 5 mM dithiothreitol (DTT) for 15 min. These three steps were done at RT. Samples were then digested with 8 μg of trypsin for 7 days at 4°C to obtain maximal recovery of TMD peptides. The digestions were terminated by adding formic acid in a final concentration of 1%, followed directly by LC-MS analysis on an Orbitrap Elite mass spectrometer. 20 μl samples were injected into a home-packed PLRP-S (Agilent, Santa Clara, CA) column (10 cm ×75 μm, 300 Å), separated with a 145 min gradient from 10% to 90% acetonitrile, and introduced to the mass spectrometer at 800 nl/min with a nanospray source. MS acquisition was set as a MS1 Orbitrap scan (resolution of 60,000) followed by top 20 MS2 Orbitrap scans (resolution of 15,000) using data-dependent acquisition, and exclusion of singly charged precursors. Fragmentation was performed using high-energy dissociation with normalized energy of 35%. Analysis of data sets was performed using Xcalibur (Thermo Fisher Scientific) to manually search for TM1, TM2, TM3 or TM4 tryptic peptides with or without neurosteroid photolabeling modifications. Photolabeling efficiency was estimated by generating extracted chromatograms of unlabeled and labeled peptides, determining the area under the curve, and calculating the abundance of labeled peptide/(unlabeled + labeled peptide). Analysis of statistical significance comparing the photolabeling efficiency of KK200 and KK123 for α1β3 GABAAR was determined using one-way ANOVA with Bonferroni's multiple comparisons test and paired t-test, respectively (Prism 6, GraphPad Software, San Diego, CA). MS2 spectra of photolabeled TMD peptides were analyzed by manual assignment of fragment ions with and without photolabeling modification. Fragment ions were accepted based on the presence of a monoisotopic mass within 20 ppm mass accuracy. In addition to manual analysis, PEAKS (Bioinformatics Solutions Inc, Waterloo, ON, Canada) database searches were performed for data sets of photolabeled α1β3 GABAAR. […]

Row | SMILES | Prevention of KK200 photolabeling of α1N408 in the α1 intrasubunit site (30 μM competitor) | Prevention of KK200 photolabeling of β3G308 in the intersubunit site (30 μM competitor) | Inhibition of KK123 photolabeling at the α1 (α1Y415) and β3 (β3Y442) intrasubunit sites (30 μM competitor, 3 μM KK123) | Photolabeling efficiency of α1 subunit TM4 (Y415, α1 intrasubunit site) | Photolabeling efficiency of β3 subunit TM4 peptide (β3 intrasubunit site)
1 | CC(=O)[C@H]1CC[C@H]2[C@@H]3CC[C@H]4C[C@H](O)CC[C@]4(C)[C@H]3CC[C@]12C [3α5αP, allopregnanolone] | prevented | prevented | – | – | –
2 | CC(=O)[C@H]1CC[C@H]2[C@@H]3CC[C@H]4C[C@@H](O)CC[C@]4(C)[C@H]3CC[C@]12C [3β5αP, epi-allopregnanolone] | prevented | does not bind to the intersubunit site | completely inhibited | – | –
3 | C#CCCO[C@H]1CC[C@H]2[C@@H]3CC[C@H]4CC5(CC[C@]4(C)[C@H]3CC[C@]12C)N=N5 [KK148] | prevented | prevented | – | 0.77% | 0.13%
4 | C#CCCO[C@@H]1CC[C@H]2[C@@H]3CC[C@H]4CC5(CC[C@]4(C)[C@H]3CC[C@]12C)N=N5 [KK150] | prevented | prevented | – | 0.62% | 0.19%
